In patent publication US12428430B2 (BRISTOL-MYERS SQUIBB COMPANY, priority 2018, dated 2025):

What was measured:
[1] = test system: mouse epithelial renal cell line, MCT; conditions: co-treatment with LPA, MCT cells; cited from earlier work
[2] = test system: human foetal lung fibroblasts; conditions: Tager et al. Nature Medicine 2008; cited from earlier work
UUO mice = conditions: compared with LPA1 (−/−) mice; cited from earlier work
[3] = test system: pancreatic cancer cell lines; conditions: cited from earlier work
nerve-injured mice = conditions: pretreatment; cited from earlier work
hLPA1 [4] = molecular target: T1, hLPA1 (Homo sapiens, UniProt Q92633); experiment: hLPA1 Binding
hLPA1 [5] = molecular target: T1, hLPA1; experiment: LPA1 functional antagonist assay (LPA-induced calcium flux in CHO cells overexpressing human LPA1); format: cell-based; parameters: expressed in transfected cells; host or cells: Chinese hamster ovary (CHO) cells; conditions: antagonist mode, inhibition of calcium flux induced by 10 nM LPA, read-out: hLPA1 IC50
Protocol: The effectiveness of compounds of the present invention as LPA1 inhibitors can be determined in an LPA1 functional antagonist assay as follows:
Chinese hamster ovary cells overexpressing human LPA1 were plated overnight (15,000 cells/well) in poly-D-lysine coated 384-well microplates (Greiner bio-one, Cat #781946) in DMEM/F12 medium (Gibco, Cat #11039). Following overnight culture, cells were loaded with calcium indicator dye (AAT Bioquest Inc, Cat #34601) for 30 minutes at 37° C. The cells were then equilibrated to room temperature for 30 minutes before the assay. Test compounds solubilized in DMSO were transferred to 384 well non-binding surface plates (Corning, Cat #3575) using the Labcyte Echo acoustic dispense and diluted with assay buffer [1×HBSS with calcium/magnesium (Gibco Cat #14025-092), 20 mM HEPES (Gibco Cat #15630-080) and 0.1% fatty acid free BSA (Sigma Cat #A9205)] to a final concentration of 0.5% DMSO. Diluted compounds were added to the cells by FDSS6000 (Hamamatsu) at final concentrations ranging from 0.08 nM to 5 μM. and were then incubated for 20 min at room temperature at which time LPA (Avanti Polar Lipids Cat #857130C) was added at final concentrations of 10 nM to stimulate the cells. The compound IC50 value was defined as the concentration of test compound which inhibited 50% of the calcium flux induced by LPA alone. IC50 values were determined by fitting data to a 4-parameter logistic equation (GraphPad Prism, San Diego Calif.).

T1 sequence (Q92633 whole entry): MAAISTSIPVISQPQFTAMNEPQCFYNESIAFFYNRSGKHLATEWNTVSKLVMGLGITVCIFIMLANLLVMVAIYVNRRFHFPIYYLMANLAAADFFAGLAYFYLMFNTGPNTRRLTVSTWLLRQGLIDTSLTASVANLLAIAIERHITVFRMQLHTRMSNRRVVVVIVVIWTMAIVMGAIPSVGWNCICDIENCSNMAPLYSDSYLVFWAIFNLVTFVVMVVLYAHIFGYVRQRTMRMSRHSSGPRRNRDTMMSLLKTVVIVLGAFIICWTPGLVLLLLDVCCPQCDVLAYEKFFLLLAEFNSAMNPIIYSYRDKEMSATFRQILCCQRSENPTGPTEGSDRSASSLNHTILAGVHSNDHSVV

Row | SMILES | IC50 (hLPA1 [5]) | also measured
1 | Cc1noc(-c2ccc(CSCCC(=O)O)cc2)c1NC(=O)OC(C)c1ccccc1Cl (centres unmarked) [Ki16425] | – | LPA-induced expression of the profibrotic cytokine CTGF [1]: almost completely suppressed; chemotaxis of human foetal lung fibroblasts induced by BAL from IPF patients [2]: blocked; development of renal fibrosis in UUO mice (UUO mice): closely resembled the profile of LPA1 (−/−) mice; in vitro migration in response to LPA and ascites from pancreatic cancer patients ([3]; Yamada et al, J. Biol. Chem. 2004): effectively blocked; LPA-induced and ascites-induced invasion activity ([3]; highly peritoneal metastatic pancreatic cancer cell line): blocked
2 | C[C@@H](N)[C@H]1CC[C@H](C(=O)Nc2ccncc2)CC1 [Example Y-27632] | – | allodynia and hyperalgesia (nerve-injured mice): completely abolished
3 | Cc1noc(C23CCC(c4ccc(CC(=O)O)cc4)(CC2)OC3)c1NC(=O)O[C@H](C)C1CC1 [Example 55, (R)-2-(4-(4-(4-(((1-cyclopropyl-ethoxy)carbonyl)amino)-3-methyl-isoxazol-5-yl)-2-oxabicyclo[2.2.2]octan-1-yl)phenyl)acetic acid] | – | Ki (hLPA1 [4]): 724 nM
4 | C[C@@H](OC(=O)Nc1c(-c2ccc(C34CCC(CC(=O)O)(CC3)OC4)c(F)c2)cnn1C)c1ccccc1Cl [Example 31, 2-(4-(4-(5-((((R)-1-(2-chlorophenyl)ethoxy)carbonyl)amino)-1-methyl-1H-pyrazol-4-yl)-2-fluorophenyl)-2-oxabicyclo[2.2.2]octan-1-yl)acetic acid] | 112 nM | –
5 | Cc1noc(-c2cccc(C34CCC(CC(=O)O)(CC3)OC4)c2)c1NC(=O)O[C@H](C)c1ccccc1Cl [Example 59, 2-(4-(3-(4-((((R)-1-(2-chlorophenyl)ethoxy)carbonyl)amino)-3-methylisoxazol-5-yl)phenyl)-2-oxabicyclo[2.2.2]octan-1-yl)acetic acid] | 95 nM | –
6 | CN(C(=O)OCc1c(-c2ccc(C34CCC(CC(=O)O)(CC3)OC4)c(F)c2)nnn1C)C1CCCC1 [Example 6, 2-(4-(4-(5-(((Cyclopentyl(methyl)carbamoyl)oxy)methyl)-1-methyl-1H-1,2,3-triazol-4-yl)-2-fluorophenyl)-2-oxabicyclo[2.2.2]octan-1-yl)acetic acid] | 363 nM | –
7 | C[C@@H](OC(=O)Nc1c(-c2ccc(C34CCC(CC(=O)O)(CC3)OC4)cc2F)cnn1C)c1ccccc1Cl [Example 32, 2-(4-(4-(5-((((R)-1-(2-chlorophenyl)ethoxy)carbonyl)amino)-1-methyl-1H-pyrazol-4-yl)-3-fluorophenyl)-2-oxabicyclo[2.2.2]octan-1-yl)acetic acid] | 115 nM | –
8 | C[C@@H](OC(=O)Nc1c(-c2ccc(C34CCC(CC(=O)O)(CC3)OC4)c(F)c2)cnn1C)c1ccccc1 [Example 30, 2-(4-(2-fluoro-4-(1-methyl-5-((((R)-1-phenylethoxy)carbonyl)amino)-1H-pyrazol-4-yl)phenyl)-2-oxabicyclo[2.2.2]octan-1-yl)acetic acid] | 365 nM | –
9 | Cc1noc(-c2ccc(C34CCC(CC(=O)O)(CC3)OC4)cc2F)c1NC(=O)OC(C)c1cccc(Cl)c1 (racemic) [Example 25, (±)-2-(4-(4-(4-(((1-(3-chlorophenyl)ethoxy)carbonyl)amino)-3-methyl-isoxazol-5-yl)-3-fluorophenyl)-2-oxabicyclo[2.2.2]octan-1-yl)acetic acid] | 345 nM | –

Second part, led by results:

Row | IC50 (hLPA1 [5]) | SMILES | also measured
10 | 379 nM | Cc1noc(-c2ccc(C34CCC(CC(=O)O)(CC3)OC4)cc2)c1NC(=O)OC(C)c1cccc(Cl)c1 (racemic) [Example 15, (±)-2-(4-(4-(4-(((1-(3-chlorophenyl)ethoxy)carbonyl)amino)-3-methyl-isoxazol-5-yl)phenyl)-2-oxabicyclo[2.2.2]octan-1-yl)acetic acid] | –
11 | 537 nM | Cc1cc(C23CCC(CC(=O)O)(CC2)OC3)ccc1-c1cnn(C)c1NC(=O)O[C@H](C)c1ccccc1Cl [Example 33, 2-(4-(4-(5-((((R)-1-(2-chlorophenyl)ethoxy)carbonyl)amino)-1-methyl-1H-pyrazol-4-yl)-3-methylphenyl)-2-oxabicyclo[2.2.2]octan-1-yl)acetic acid] | –
12 | 1860 nM | CN(C(=O)OCc1c(-c2ccc(C34CCC(CC(=O)O)(CC3)OC4)cc2F)cnn1C)C1CCCC1 [Example 44, 2-(4-(4-(5-(((cyclopentyl(methyl)carbamoyl)oxy)methyl)-1-methyl-1H-pyrazol-4-yl)-3-fluorophenyl)-2-oxabicyclo[2.2.2]octan-1-yl)acetic acid] | –
13 | 278 nM | C[C@@H](OC(=O)Nc1c(-c2ccc(C34CCC(C(=O)O)(CC3)OC4)cc2)cnn1C)c1ccccc1 [Example 9, (R)-4-(4-(1-methyl-5-(((1-phenylethoxy)carbonyl)amino)-1H-pyrazol-4-yl)phenyl)-2-oxabicyclo[2.2.2]octane-1-carboxylic acid] | –
